Legend:
[1] = molecular target: T1, E. coli SASX38 strain having pBAtPX-C with Arabidopsis thaliana wild type protoporphyrinogen oxidase gene (Arabidopsis thaliana, UniProt P55826); test: Growth inhibition of E. coli SASX38 (liquid culture with shaking); type: cell-based; settings: Arabidopsis thaliana wild type (pBAtPX-C); read-out: IC50, growth of E. coli
T1 construct: expressed in transfected cells; host or cells: E. coli SASX38 (hemG-deficient) carrying pBAtPX-C (pBluescript SK(-))
T1 sequence (P55826 35-537): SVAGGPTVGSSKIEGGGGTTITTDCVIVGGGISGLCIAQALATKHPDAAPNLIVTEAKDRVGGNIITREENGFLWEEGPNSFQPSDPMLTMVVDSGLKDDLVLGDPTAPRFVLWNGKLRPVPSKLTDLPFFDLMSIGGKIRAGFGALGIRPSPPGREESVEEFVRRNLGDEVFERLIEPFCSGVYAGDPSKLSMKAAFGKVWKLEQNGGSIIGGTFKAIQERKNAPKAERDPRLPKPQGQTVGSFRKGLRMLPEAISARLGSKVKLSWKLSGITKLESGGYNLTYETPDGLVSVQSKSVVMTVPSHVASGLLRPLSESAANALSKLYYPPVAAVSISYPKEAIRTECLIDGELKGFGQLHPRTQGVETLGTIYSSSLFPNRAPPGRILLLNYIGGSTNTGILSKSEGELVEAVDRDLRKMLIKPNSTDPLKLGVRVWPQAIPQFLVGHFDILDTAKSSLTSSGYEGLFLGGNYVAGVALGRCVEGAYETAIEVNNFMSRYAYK
Experimental: (§1) The E. coli SASX38 strain containing either of the above-described two kinds of plasmid was cultured with shaking in LB liquid medium containing 50 μg/ml of ampicillin at 28° C. for overnight.

[2] = molecular target: T2, E. coli SASX38 strain having pCR-HC with tobacco wild type protoporphyrinogen oxidase cDNA (Nicotiana tabacum, UniProt O24163); test: as above; type: cell-based; settings: E. coli containing pCR-HC; read-out: IC50, growth of E. coli inhibited by 50%
T2 construct: expressed in transfected cells; host or cells: E. coli SASX38 (hemG-deficient) carrying pCR-HC
T2 sequence (O24163 51-548): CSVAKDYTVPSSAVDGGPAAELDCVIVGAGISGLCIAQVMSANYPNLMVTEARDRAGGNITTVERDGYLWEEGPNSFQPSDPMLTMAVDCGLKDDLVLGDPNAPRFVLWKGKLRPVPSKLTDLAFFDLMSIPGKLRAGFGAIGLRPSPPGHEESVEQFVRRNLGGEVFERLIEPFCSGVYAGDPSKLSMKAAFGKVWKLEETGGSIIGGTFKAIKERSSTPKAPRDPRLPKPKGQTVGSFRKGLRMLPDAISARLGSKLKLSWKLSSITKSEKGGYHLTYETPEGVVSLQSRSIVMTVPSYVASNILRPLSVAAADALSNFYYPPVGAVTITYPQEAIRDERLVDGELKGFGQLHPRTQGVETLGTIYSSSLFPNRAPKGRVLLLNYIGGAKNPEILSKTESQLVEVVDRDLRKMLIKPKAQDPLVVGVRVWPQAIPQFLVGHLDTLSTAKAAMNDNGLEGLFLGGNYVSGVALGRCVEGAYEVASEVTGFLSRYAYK
Experimental: as §1

[3] = molecular target: T3, E. coli SASX38 strain having pCR-RC with tobacco resistant type protoporphyrinogen oxidase gene (Nicotiana tabacum, UniProt O24163, A174P/A191P/A231V/T382S); test: as above; type: cell-based
T3 construct: expressed in transfected cells; host or cells: E. coli SASX38 (hemG-deficient) carrying pCR-RC
T3 sequence (O24163 whole entry A174P/A191P/A231V/T382S): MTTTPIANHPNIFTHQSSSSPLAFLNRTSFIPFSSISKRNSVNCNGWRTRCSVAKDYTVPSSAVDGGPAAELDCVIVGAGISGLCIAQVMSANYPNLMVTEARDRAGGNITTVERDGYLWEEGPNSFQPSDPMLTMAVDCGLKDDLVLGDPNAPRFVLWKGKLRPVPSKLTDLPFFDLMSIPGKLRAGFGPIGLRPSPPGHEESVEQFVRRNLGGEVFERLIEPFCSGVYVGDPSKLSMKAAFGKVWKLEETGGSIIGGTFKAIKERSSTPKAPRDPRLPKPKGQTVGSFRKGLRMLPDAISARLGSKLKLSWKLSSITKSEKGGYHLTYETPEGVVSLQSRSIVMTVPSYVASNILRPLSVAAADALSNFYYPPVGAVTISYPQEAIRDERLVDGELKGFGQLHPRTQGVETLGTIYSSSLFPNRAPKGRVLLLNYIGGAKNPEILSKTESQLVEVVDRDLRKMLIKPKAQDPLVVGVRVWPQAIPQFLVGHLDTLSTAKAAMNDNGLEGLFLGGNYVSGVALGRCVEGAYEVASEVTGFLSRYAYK
Experimental: as §1

[4] = test system: E. coli SASX38 strain having pCR-RC with tobacco resistant type protoporphyrinogen oxidase gene; test: as above; type: cell-based, Nicotiana tabacum; settings: tobacco
Experimental: as §1

[5] = test system: transformed tobacco plant, Arabidopsis thaliana resistant type (pBI-AtPX-RC); test: Leaf disk method, bleaching; type: cell-based, N. Tabacum var. SR1
Experimental: (§2) The A. tumefacience having the binary vector which had been stored at −80° C. was cultured with shaking at 27° C. for 24 hours in 523 liquid medium (1% sucrose, 0.8% Bacto-tryptone, 0.4% Bacto-yeast extract, 0.2% K2HPO4, 0.03% MgSO4.7H2O) containing kanamycin. A disk (9 mm diameter) of a tobacco (N. Tabacum var. SR1) leaf which had been surface sterilized was immersed for one minute into the culture of the A. tumefacience, and then the culture liquid attached thereon was removed with a sterilized paper towel. The leaf disk was transferred into MS agar medium containing 0.6% agar in which 2 ppm NAA and 0.2 ppm BA were added, with the reverse side of leaf being made upside, and incubated at 25° C. for 48 hours. The leaf disk was transferred into MS liquid medium containing 500 ppm carbenicillin, 200 ppm claforan, 2 ppm NAA and 0.2 ppm BA and cultured with shaking at 27° C. for 48-72 hours to remove A. tumefacience. The leaf disk was transferred into MS liquid medium containing 0.6% agar, 100 ppm of carbenycillin, 200 ppm of claforan and 150 ppm of kanamycin, 2 ppm NAA and 0.2 ppm BA and incubated at 27° C. for 2-3 weeks and formation of shoot was induced. The shoot was transferred into medium for root development (½ MS, 0.02 ppm IBA, 1.5% sucrose, 0.2% gellan gum) and development of root was introduced. The young plant thus obtained was transferred into culture soil, and was grown in a green house.
(§3) From the transformed plant with which the confirmation of introduction of gene was finished, and non-transformed plant used as a control, a leaf almost the same position of the leaf was picked and 9 mm diameter leaf disks were prepared, and floated on a dish in which 0, 125, 250, 1,250, 2,500, 5,000, 12,500 nM of compound A aqueous solution were contained. After incubation at 27° C. for one week under continuous strong light, the bleaching of the leaf disks was observed, and the permissive concentration to compound A was calculated. As a result (Table 7), in case that the tolerant type of protoporphirinogen oxidase cDNA from tobacco was introduced by pBI-NtPX-RC, more than 100 times of tolerance was observed comparing to the control non-transformed plant. However, in case that rsistant type cDNA from Arabidopsis thaliana was introduced by pBI-AtPX-RC, 4 times of resistance was observed comparing to the control, and in case that the wild type cDNA was introduced, high resistance was not observed in each case.

[6] = test system: transformed tobacco plant, Arabidopsis thaliana wild type (pBI-AtPX-HC); test: Leaf disk method, bleaching; type: cell-based, N. Tabacum var. SR1
Experimental: as §2, §3

[7] = test system: transformed tobacco plant, Tobacco resistant type (pBI-NtPX-RC); test: Leaf disk method, bleaching; type: cell-based, N. Tabacum var. SR1
Experimental: as §2, §3

[8] = test system: transformed tobacco plant, Tobacco wild type (pBI-NtPX-HC); test: Leaf disk method, bleaching; type: cell-based, N. Tabacum var. SR1
Experimental: as §2, §3

In the case of `CCOC(=O)COc1cc(-c2nn(C)c(OC(F)F)c2Cl)c(F)cc1Cl` [Compound A, ethyl 2-chloro-5-(4-chloro-5-difluoromethoxy-1-methyl-1H-pyrazol-3-yl)-4-fluorophenoxyacetate], the IC50 [1] is reported as roughly 5 nM, the IC50 [2] is reported as roughly 2.5 nM and the IC50 [3] is reported as no less than 10000 nM. For the same compound, the “R/S ratio (IC50 value of a resistant type/IC50 value in a wild type)” value [4] was “over 4,000”, the “Permission conc. to compound A” value ([5]; Arabidopsis thaliana resistant type (pBI-AtPX-RC)) was 500 nM and the Resistance ([5]; Arabidopsis thaliana resistant type, vs non-transformed) was 4 X. The “Permission conc. to compound A” value ([6]; Arabidopsis thaliana Wild type (pBI-AtPX-HC)) was 250 nM, the Resistance ([6]; Arabidopsis thaliana Wild type, vs non-transformed) was 2 X and the “Permission conc. to compound A” value [7] was >12,500 nM. The “Permission conc. to compound A” value [8] was 500 nM and the Resistance ([8]; vs non-transformed) was 4 X.

— patent US6905852B1, “Herbicide-resistant protoporphyrinogen oxidase isolated from Nicotiana tabacum” (Nihon Nohyaku Co., Ltd., priority 1997, dated 2005)
